Measured values from PubChem BioAssay (NCI).
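Grown in 96-well plates, cells were treated for 48 hours with each compound at five concentrations. Insufficient inhibition: endpoint recorded as highest concentration tested. TGI denotes the concentration required for complete inhibition of growth.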 Peptide text beside a SMILES is read from it. * marks the point of attachment. Boc = CC(C)(C)OC(=O)*; OBn = c1ccc(CO*)cc1

Key:
Experiment in all cases: NCI tumour cell line growth inhibition, 48 h
786-0 renal = system: 786-0 renal
A498 renal = system: A498 renal
A549 NSCLC = system: A549 NSCLC
ACHN renal = system: ACHN renal
BT-549 breast = system: BT-549 breast
CAKI-1 renal = system: CAKI-1 renal
CCRF-CEM leukemia = system: CCRF-CEM leukemia
COLO 205 colon = system: COLO 205 colon
DU-145 prostate = system: DU-145 prostate
EKVX NSCLC = system: EKVX NSCLC
HCT-116 colon = system: HCT-116 colon
HCT-15 colon = system: HCT-15 colon
HL-60(TB) leukemia = system: HL-60(TB) leukemia
HOP-92 NSCLC = system: HOP-92 NSCLC
HS 578T breast = system: HS 578T breast
HT29 colon = system: HT29 colon
IGROV1 ovarian = system: IGROV1 ovarian
K-562 leukemia = system: K-562 leukemia
KM12 colon = system: KM12 colon
LOX IMVI melanoma = system: LOX IMVI melanoma
M14 melanoma = system: M14 melanoma
MALME-3M melanoma = system: MALME-3M melanoma
MCF7 breast = system: MCF7 breast
MDA-MB-231 breast = system: MDA-MB-231 breast
MDA-MB-435 = system: MDA-MB-435
MDA-N = system: MDA-N
MOLT-4 leukemia = system: MOLT-4 leukemia
NCI-H226 lung = system: NCI-H226 lung
NCI-H23 lung = system: NCI-H23 lung
NCI-H522 lung = system: NCI-H522 lung
NCI/ADR-RES ovarian = system: NCI/ADR-RES ovarian
OVCAR-4 ovarian = system: OVCAR-4 ovarian
OVCAR-5 ovarian = system: OVCAR-5 ovarian
OVCAR-8 ovarian = system: OVCAR-8 ovarian
PC-3 prostate = system: PC-3 prostate
RXF 393 renal = system: RXF 393 renal
SF-268 CNS = system: SF-268 CNS
SF-295 CNS = system: SF-295 CNS
SF-539 CNS = system: SF-539 CNS
SK-MEL-2 melanoma = system: SK-MEL-2 melanoma
SK-MEL-28 melanoma = system: SK-MEL-28 melanoma
SK-MEL-5 melanoma = system: SK-MEL-5 melanoma
SK-OV-3 ovarian = system: SK-OV-3 ovarian
SN12C renal = system: SN12C renal
SNB-19 CNS = system: SNB-19 CNS
SNB-75 CNS = system: SNB-75 CNS
SR leukemia = system: SR leukemia
SW-620 colon = system: SW-620 colon
T-47D breast = system: T-47D breast
TK-10 renal = system: TK-10 renal
U251 CNS = system: U251 CNS
UACC-257 melanoma = system: UACC-257 melanoma
UACC-62 melanoma = system: UACC-62 melanoma
UO-31 renal = system: UO-31 renal
HCC-2998 colon = system: HCC-2998 colon
HOP-62 NSCLC = system: HOP-62 NSCLC
NCI-H460 lung = system: NCI-H460 lung
OVCAR-3 ovarian = system: OVCAR-3 ovarian
RPMI-8226 leukemia = system: RPMI-8226 leukemia

## CC(NC(=O)CNC(=O)OC(C)(C)C)C(=O)NC(Cc1ccccc1)C(=O)OCc1ccccc1 (stereo not drawn) (Boc-Gly-Ala-Phe-OBn; configuration not given here)
786-0 renal
  TGI: > 100 µM
A498 renal
  TGI: > 100 µM
A549 NSCLC
  TGI: > 100 µM
ACHN renal
  TGI: > 100 µM
BT-549 breast
  TGI: > 100000 nM
CAKI-1 renal
  TGI: > 100 µM
CCRF-CEM leukemia
  TGI: > 100 µM
COLO 205 colon
  TGI: > 100 µM
DU-145 prostate
  TGI: > 100 µM
EKVX NSCLC
  TGI: > 100 µM
HCT-116 colon
  TGI: > 100 µM
HCT-15 colon
  TGI: > 100 µM
HL-60(TB) leukemia
  TGI: > 100000 nM
HOP-92 NSCLC
  TGI: > 100 µM
HS 578T breast
  TGI: > 100 µM
HT29 colon
  TGI: > 100 µM
IGROV1 ovarian
  TGI: > 100 µM
K-562 leukemia
  TGI: > 100 µM
KM12 colon
  TGI: > 100 µM
LOX IMVI melanoma
  TGI: > 100 µM
M14 melanoma
  TGI: > 100 µM
MALME-3M melanoma
  TGI: > 100 µM
MCF7 breast
  TGI: > 100 µM
MDA-MB-231 breast
  TGI: > 100 µM
MDA-MB-435
  TGI: > 100 µM
MDA-N
  TGI: > 100 µM
MOLT-4 leukemia
  TGI: > 100000 nM
NCI-H226 lung
  TGI: > 100 µM
NCI-H23 lung
  TGI: > 100 µM
NCI-H522 lung
  TGI: > 100000 nM
NCI/ADR-RES ovarian
  TGI: > 100 µM
OVCAR-4 ovarian
  TGI: > 100 µM
OVCAR-5 ovarian
  TGI: > 100 µM
OVCAR-8 ovarian
  TGI: > 100 µM
PC-3 prostate
  TGI: > 100 µM
RXF 393 renal
  TGI: > 100 µM
SF-268 CNS
  TGI: > 100 µM
SF-295 CNS
  TGI: > 100 µM
SF-539 CNS
  TGI: > 100 µM
SK-MEL-2 melanoma
  TGI: > 100 µM
SK-MEL-28 melanoma
  TGI: > 100 µM
SK-MEL-5 melanoma
  TGI: > 100 µM
SK-OV-3 ovarian
  TGI: > 100 µM
SN12C renal
  TGI: > 100 µM
SNB-19 CNS
  TGI: > 100 µM
SNB-75 CNS
  TGI: > 100 µM
SR leukemia
  TGI: > 100 µM
SW-620 colon
  TGI: > 100 µM
T-47D breast
  TGI: > 100 µM
TK-10 renal
  TGI: > 100 µM
U251 CNS
  TGI: > 100 µM
UACC-257 melanoma
  TGI: > 100000 nM
UACC-62 melanoma
  TGI: > 100 µM
UO-31 renal
  TGI: > 100 µM

## C=C1CC(C)(COc2ccc3ccc(=O)oc3c2)OC1=O (configuration not stated)
786-0 renal
  TGI: 7.42 µM
A498 renal
  TGI: 23.1 µM
A549 NSCLC
  TGI: 30.5 µM
ACHN renal
  TGI: 11.2 µM
BT-549 breast
  TGI: 2650 nM
CAKI-1 renal
  TGI: 7.84 µM
CCRF-CEM leukemia
  TGI: 5.11 µM
COLO 205 colon
  TGI: 4.42 µM
DU-145 prostate
  TGI: 12.5 µM
EKVX NSCLC
  TGI: 26.7 µM
HCC-2998 colon
  TGI: 6.96 µM
HCT-116 colon
  TGI: 6.38 µM
HCT-15 colon
  TGI: 8.71 µM
HL-60(TB) leukemia
  TGI: 2570 nM
HOP-62 NSCLC
  TGI: 39.5 µM
HOP-92 NSCLC
  TGI: 4.4 µM
HS 578T breast
  TGI: 24.3 µM
HT29 colon
  TGI: 9.66 µM
IGROV1 ovarian
  TGI: 10.8 µM
K-562 leukemia
  TGI: 32.1 µM
KM12 colon
  TGI: 17.6 µM
LOX IMVI melanoma
  TGI: 5.65 µM
M14 melanoma
  TGI: 4.97 µM
MALME-3M melanoma
  TGI: 6.31 µM
MCF7 breast
  TGI: 5.65 µM
MDA-MB-231 breast
  TGI: 24.6 µM
MDA-MB-435
  TGI: 9.35 µM
MDA-N
  TGI: 13.8 µM
MOLT-4 leukemia
  TGI: 2460 nM
NCI-H226 lung
  TGI: 27.3 µM
NCI-H23 lung
  TGI: 12.3 µM
NCI-H460 lung
  TGI: 22.9 µM
NCI-H522 lung
  TGI: 2840 nM
NCI/ADR-RES ovarian
  TGI: 11.2 µM
OVCAR-3 ovarian
  TGI: 17.2 µM
OVCAR-4 ovarian
  TGI: 11.1 µM
OVCAR-5 ovarian
  TGI: 22.1 µM
OVCAR-8 ovarian
  TGI: 19.7 µM
PC-3 prostate
  TGI: 16.2 µM
RPMI-8226 leukemia
  TGI: 4.7 µM
SF-268 CNS
  TGI: 33.5 µM
SF-295 CNS
  TGI: 20.8 µM
SF-539 CNS
  TGI: 10.2 µM
SK-MEL-2 melanoma
  TGI: 8.8 µM
SK-MEL-28 melanoma
  TGI: 11.2 µM
SK-MEL-5 melanoma
  TGI: 6.65 µM
SK-OV-3 ovarian
  TGI: 21.4 µM
SN12C renal
  TGI: 25 µM
SNB-19 CNS
  TGI: 51.9 µM
SNB-75 CNS
  TGI: 22.6 µM
SR leukemia
  TGI: > 20.7 µM
SW-620 colon
  TGI: 4.79 µM
T-47D breast
  TGI: 17.3 µM
TK-10 renal
  TGI: 4.29 µM
U251 CNS
  TGI: 27.1 µM
UACC-257 melanoma
  TGI: 2580 nM
UACC-62 melanoma
  TGI: 13.2 µM
UO-31 renal
  TGI: 29.5 µM
